Our source for the EC50 values is ChEMBL document CHEMBL4680283, “Evaluation of 1,1-cyclopropylidene as a thioether isostere in the 4-thio-thienopyrimidine (TTP) series of antimalarials” (Bioorg Med Chem, 2020).

This test deals with Plasmodium falciparum. As to the kind of experiment: Antimalarial activity against chloroquine-sensitive Plasmodium falciparum 3D7 MRA-102 infected in human erythrocytes assessed as reduction in parasite growth incubated for 72 hrs by SYBR green dye based fluorescence assay. The following applies: 3D7 MRA-102, Erythrocyte. The test is classed as functional, organism-based.

Structures are written as SMILES.

Consider `Cn1c(Sc2ncnc3sccc23)nc2ccccc21`, for which the EC50 (usually the midpoint of the concentration-response curve) stood at 0.191 µM. Turning to `Cc1csc(C(=O)c2ncnc3sccc23)n1`, the concentration for a half-maximal effect (EC50) was found to be 4.08 µM.

In the case of `Cc1csc(C2(c3ncnc4sccc34)CC2)n1`, the 50% effective concentration (EC50) was above 23 µM.

Consider `Cn1c(C2(c3ncnc4sccc34)CC2)nc2ccccc21`, for which the concentration for a half-maximal effect (EC50) was above 23 µM.

In the case of `Cc1csc(Sc2ncnc3sccc23)n1`, the half-maximal effective concentration (EC50) was found to be 0.037 µM. Then `CCOC(=O)/C=C(/c1nc(C)cs1)c1ncnc2sccc12`, with 6.97 µM; and `Cc1csc(C(C)(O)c2ncnc3sccc23)n1` (configuration not stated), with above 23 µM.
